Read-outs that look alike come from different tables or passages of the source.
Experiments:
[1] = Intrinsic clearance in liver microsomes; format: in vitro ADME; conditions: 37 °C, NADPH, 45 min, mean of 5
Procedure: The reaction is terminated by the addition of methanol. Following centrifugation, the supernatant is analyzed on the LC-MS/MS. […] The data is the mean on 5 separate experiments.
The ln peak area ratio (compound peak area/internal standard peak area) is plotted against time and the gradient of the line determined.
(see Supplementary data file for details).

HEPG2 cells = test: High-content cell toxicity screen in HEPG2 cells; format: cell-based; conditions: concentrations between 10 and 30 μM
Procedure: Effect on the cell or mitochondrial viability markers in HepG2 cells were tested for compounds up to 50 μM. HepG2 cells were plated on 96-well tissue culture treated black walled clear bottomed polystyrene plates at 0:3 _ 104 cells in 100_L per well. After 24 hr the cells were dosed with the test compound at a range of concentrations (see Assay Summary for details). At the end of the incubation period, the cells were loaded with the relevant dye/antibody for each cell health marker. The plates were then scanned using an automated fluorescent cellular imager, ArrayScanr VTI (Thermo Scientific Cellomics).

[2] = in the absence of S9; cited from earlier work
[3] = Log D pH 7.4, octanol/buffer shake flask method
Procedure: Briefly, octanol (pre-saturated with buffer) is added to the test compound and sonicated. Buffer at pH 7.4 (presaturated with octanol) is then added to the octanol. […] The system is mixed to allow distribution of the compound between the two phases.
Log D = Log (Coct / Caq ). Where: Coct = Concentration in octanol sample (corrected for dilution) and Caq = Concentration in aqueous sample (corrected for dilution)

Cyp 450 1A2 = biological target: T1, Cyp 450 1A2 (Homo sapiens, UniProt P05177); test: Cytochrome P450 inhibition in human liver microsomes; format: in vitro ADME; conditions: at 25 μM
T1 construct: tissue Cyprotex (CRO); host or cells: human liver microsomes
T1 sequence (P05177 1-516): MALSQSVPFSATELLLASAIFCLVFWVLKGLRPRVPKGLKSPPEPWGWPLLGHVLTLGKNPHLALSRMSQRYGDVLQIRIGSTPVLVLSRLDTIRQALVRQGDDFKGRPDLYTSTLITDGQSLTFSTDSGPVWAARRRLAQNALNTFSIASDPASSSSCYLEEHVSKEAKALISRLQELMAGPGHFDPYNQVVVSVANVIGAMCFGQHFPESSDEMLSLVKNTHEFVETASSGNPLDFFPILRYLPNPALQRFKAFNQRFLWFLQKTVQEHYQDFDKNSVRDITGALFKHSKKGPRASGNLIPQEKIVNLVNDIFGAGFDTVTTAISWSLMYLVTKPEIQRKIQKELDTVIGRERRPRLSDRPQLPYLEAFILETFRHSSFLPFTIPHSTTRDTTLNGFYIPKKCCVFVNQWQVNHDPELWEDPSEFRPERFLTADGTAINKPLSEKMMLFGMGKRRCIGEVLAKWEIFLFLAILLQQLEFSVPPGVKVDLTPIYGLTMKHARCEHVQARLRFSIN
Procedure: (§1) The five main cytochrome P450 isoforms (CYP1A, CYP2C9, CYP2C19, CYP2D6 and CYP3A4) were investigated in the P450 inhibition assay. […] At the end of the incubation, the formation of the metabolite was monitored by LC-MS/MS (or fluorescence in the case of CYP1A) at each of the test compound concentrations.

Cyp 450 2C19 = biological target: T2, Cyp 450 2C19 (Homo sapiens, UniProt P33261); test: as above; format: in vitro ADME; conditions: at 25 μM
T2 construct: tissue Cyprotex (CRO); host or cells: human liver microsomes
Procedure: as §1

Cyp 450 2C9 = biological target: T3, Cyp 450 2C9 (Homo sapiens, UniProt P11712); test: as above; format: in vitro ADME; conditions: at 25 μM
T3 construct: tissue Cyprotex (CRO); host or cells: human liver microsomes
Procedure: as §1

Cyp 450 2D6 = biological target: T4, Cyp 450 2D6 (Homo sapiens, UniProt P10635); test: as above; format: in vitro ADME; conditions: at 25 μM
T4 construct: tissue Cyprotex (CRO); host or cells: human liver microsomes
Procedure: as §1

Cyp 450 3A4 = biological target: T5, Cyp 450 3A4 (Homo sapiens, UniProt P08684); test: as above; format: in vitro ADME; conditions: at 25 μM
T5 construct: tissue Cyprotex (CRO); host or cells: human liver microsomes
Procedure: as §1

PK studies in rats = format: in vivo, Sprague-Dawley rats; conditions: for rat pK Cl: iv 0.5 mg/kg; for rat pK Cl / bioavailability: n = 4; for bioavailability: male, Sprague-Dawley, rat, 10 mg/kg po vs 0.5 mg/kg iv, read-out: rat pK F%; for rat pK AUC po: 10 mg/kg po, 8% Ethanol/92% PEG-400, n = 4
Procedure: The Test Items were orally administered at a dose of 10 mg/kg and a dosing volume of 10 mL/kg. […] The Test Items were intravenously administered at a dose of 0.5 mg/kg and a dosing volume of 2 mL/kg. […] Whole blood concentrations of the Test Items were measured using LC-MS/MS and selected pharmacokinetic parameters calculated using Pharsight WinNonLin software. For furthers details see Supplementary data file.

mouse RAR alpha receptor = biological target: T6, mouse RAR alpha receptor (Mus musculus, UniProt P11416); conditions: relative to the amplitude of the normalizing ATRA output
T6 sequence (P11416 183-417 limits assumed): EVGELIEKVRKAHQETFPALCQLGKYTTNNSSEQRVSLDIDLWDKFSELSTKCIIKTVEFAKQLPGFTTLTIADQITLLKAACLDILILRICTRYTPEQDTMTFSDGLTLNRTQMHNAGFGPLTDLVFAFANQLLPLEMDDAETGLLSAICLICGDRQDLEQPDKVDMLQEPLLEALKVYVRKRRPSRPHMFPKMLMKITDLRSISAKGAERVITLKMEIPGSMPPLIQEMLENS

[4] = liver microsomes, human microsomes
[5] = liver microsomes, mouse microsomes

T4 sequence (P10635 whole entry): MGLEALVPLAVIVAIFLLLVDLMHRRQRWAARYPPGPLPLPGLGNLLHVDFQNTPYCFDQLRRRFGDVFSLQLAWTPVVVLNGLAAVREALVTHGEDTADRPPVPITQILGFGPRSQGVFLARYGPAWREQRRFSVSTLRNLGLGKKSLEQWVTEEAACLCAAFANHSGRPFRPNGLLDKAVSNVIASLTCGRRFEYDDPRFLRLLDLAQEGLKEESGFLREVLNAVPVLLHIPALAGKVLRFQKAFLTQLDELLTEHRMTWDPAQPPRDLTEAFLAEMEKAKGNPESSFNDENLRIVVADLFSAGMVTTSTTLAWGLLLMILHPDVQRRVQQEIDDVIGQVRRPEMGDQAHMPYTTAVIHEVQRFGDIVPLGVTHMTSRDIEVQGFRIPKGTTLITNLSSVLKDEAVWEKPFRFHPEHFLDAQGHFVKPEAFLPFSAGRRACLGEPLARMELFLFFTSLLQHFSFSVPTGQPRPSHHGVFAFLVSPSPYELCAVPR
T5 sequence (P08684 whole entry): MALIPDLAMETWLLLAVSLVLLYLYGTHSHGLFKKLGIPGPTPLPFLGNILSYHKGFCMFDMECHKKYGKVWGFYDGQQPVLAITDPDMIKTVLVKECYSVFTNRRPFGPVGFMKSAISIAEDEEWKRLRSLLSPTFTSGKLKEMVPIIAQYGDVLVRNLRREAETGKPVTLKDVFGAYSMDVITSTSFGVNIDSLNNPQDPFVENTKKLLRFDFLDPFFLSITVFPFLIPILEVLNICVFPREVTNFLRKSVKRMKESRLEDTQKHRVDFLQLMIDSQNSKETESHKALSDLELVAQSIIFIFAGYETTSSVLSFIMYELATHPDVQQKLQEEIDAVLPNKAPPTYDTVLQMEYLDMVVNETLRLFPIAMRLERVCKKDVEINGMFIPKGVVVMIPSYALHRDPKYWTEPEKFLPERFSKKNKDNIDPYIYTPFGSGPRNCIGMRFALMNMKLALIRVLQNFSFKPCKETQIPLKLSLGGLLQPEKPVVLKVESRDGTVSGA
T3 sequence (P11712 whole entry): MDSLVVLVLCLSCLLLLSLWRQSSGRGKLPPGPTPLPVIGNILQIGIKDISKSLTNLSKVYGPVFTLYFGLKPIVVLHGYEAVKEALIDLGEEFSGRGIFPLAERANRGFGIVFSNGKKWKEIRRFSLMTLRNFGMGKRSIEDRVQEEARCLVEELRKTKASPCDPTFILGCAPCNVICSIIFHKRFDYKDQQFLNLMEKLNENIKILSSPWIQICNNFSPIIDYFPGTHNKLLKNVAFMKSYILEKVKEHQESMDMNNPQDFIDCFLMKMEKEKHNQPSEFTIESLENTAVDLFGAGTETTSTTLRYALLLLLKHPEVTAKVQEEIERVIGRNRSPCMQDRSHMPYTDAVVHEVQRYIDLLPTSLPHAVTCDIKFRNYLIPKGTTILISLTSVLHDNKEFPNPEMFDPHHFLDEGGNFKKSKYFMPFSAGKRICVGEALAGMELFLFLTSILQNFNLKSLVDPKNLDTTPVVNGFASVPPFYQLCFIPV
T2 sequence (P33261 whole entry): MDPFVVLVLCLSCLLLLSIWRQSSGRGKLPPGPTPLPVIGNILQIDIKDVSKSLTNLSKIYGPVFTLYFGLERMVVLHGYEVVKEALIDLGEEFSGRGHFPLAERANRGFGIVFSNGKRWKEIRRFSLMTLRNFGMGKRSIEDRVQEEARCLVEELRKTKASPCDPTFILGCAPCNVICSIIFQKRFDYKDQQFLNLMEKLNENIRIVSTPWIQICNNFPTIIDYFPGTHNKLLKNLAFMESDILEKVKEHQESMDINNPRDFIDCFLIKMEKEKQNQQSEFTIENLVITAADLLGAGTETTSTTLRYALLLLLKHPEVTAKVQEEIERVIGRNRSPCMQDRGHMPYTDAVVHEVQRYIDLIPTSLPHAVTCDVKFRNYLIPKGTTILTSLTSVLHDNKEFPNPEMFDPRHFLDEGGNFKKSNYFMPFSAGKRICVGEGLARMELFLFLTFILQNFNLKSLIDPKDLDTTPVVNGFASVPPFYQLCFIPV

SMILES	microsomal CLint [1, 4]	cell membrane permeability (HEPG2 cells)	mitochondrial membrane potential (HEPG2 cells)	mutagenicity in vitro [2]	logD [3]	microsomal CLint [1, 5]	Cyp1A liability (Cyp 450 1A2)	Cyp 2C19 liability (Cyp 450 2C19)	Cyp 2C9 liability (Cyp 450 2C9)	Cyp 2D6 liability (Cyp 450 2D6)	Cyp 3A4 liability (Cyp 450 3A4)	microsomal CLint ([1]; human microsomes)	microsomal CLint ([1]; mouse microsomes)	rat pK Cl (PK studies in rats)	bioavailability (PK studies in rats; in vivo)	RARα agonist type (partial / full agonist) (mouse RAR alpha receptor)	rat pK AUC po (PK studies in rats)	bioavailability (PK studies in rats; whole blood)
CC1(C)CCC(C)(C)c2cc(C(=O)Nc3ccc(C(=O)O)cc3)ccc21 [Compound 2]	15.6 µL/min/mg	significant increase	significant decrease	mutagen	2.8	–	–	–	–	–	–	–	–	–	–	–	–	–
CCOc1c(Cl)cc(C(=O)Nc2ccc(C(=O)O)cc2)cc1Cl [Compound 5, 4-(3,5-dichloro-4-ethoxybenzamido)benzoic acid]	18 µL/min/mg	–	–	–	1.7	127 µL/min/mg	inactive	inactive	inactive	inactive	inactive	–	–	–	–	–	–	–
CCOc1c(OC(C)C)cc(C(=O)Nc2ccc(C(=O)O)cc2)cc1OC(C)C [Compound 31, 4-(4-Ethoxy-3,5-diisopropoxybenzamido)benzoic acid]	–	–	–	–	1.6	–	–	–	–	–	–	4 µL/min/mg	8 µL/min/mg	1 mL/kg/min	81%	partial RARα agonist	–	–
CC(C)Oc1cc(C(=O)Nc2ccc(C(=O)O)cc2)cc(Cl)c1OC(C)C [Compound 39, 4-(3-chloro-4,5-diisopropoxybenzamido)benzoic acid]	–	–	–	–	2.6	31 µL/min/mg	–	–	–	–	–	–	–	10 mL/kg/min	–	full agonist	43,569 ng·min mL^−1	39%
COc1c(Cl)cc(C(=O)Nc2ccc(C(=O)O)cc2)cc1OC(C)C [Compound 51]	12 µL/min/mg	–	–	–	1	9 µL/min/mg	–	–	–	–	–	–	–	3 mL/kg/min	–	full agonist	50,940 ng·min mL^−1	13%

From PMC5823845 (Bioorganic & Medicinal Chemistry, 2018)
